Test results: PubChem BioAssay (NCI)
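Interpolation was linear, between the two tested concentrations surrounding the appropriate level; five concentrations were tested over 48 hours in 96-well plates. Definition used: TGI = concentration required for complete inhibition of growth.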

Columns and labels:
Test in all cases: DTP human tumour cell line panel, 48 h
786-0 renal = system: 786-0 renal
A498 renal = system: A498 renal
A549 NSCLC = system: A549 NSCLC
ACHN renal = system: ACHN renal
BT-549 breast = system: BT-549 breast
CAKI-1 renal = system: CAKI-1 renal
CCRF-CEM leukemia = system: CCRF-CEM leukemia
COLO 205 colon = system: COLO 205 colon
DU-145 prostate = system: DU-145 prostate
EKVX NSCLC = system: EKVX NSCLC
HCC-2998 colon = system: HCC-2998 colon
HCT-116 colon = system: HCT-116 colon
HCT-15 colon = system: HCT-15 colon
HL-60(TB) leukemia = system: HL-60(TB) leukemia
HOP-62 NSCLC = system: HOP-62 NSCLC
HOP-92 NSCLC = system: HOP-92 NSCLC
HS 578T breast = system: HS 578T breast
HT29 colon = system: HT29 colon
IGROV1 ovarian = system: IGROV1 ovarian
K-562 leukemia = system: K-562 leukemia
KM12 colon = system: KM12 colon
LOX IMVI melanoma = system: LOX IMVI melanoma
M14 melanoma = system: M14 melanoma
MALME-3M melanoma = system: MALME-3M melanoma
MCF7 breast = system: MCF7 breast
MDA-MB-231 breast = system: MDA-MB-231 breast
MDA-MB-435 = system: MDA-MB-435
MDA-N = system: MDA-N
MOLT-4 leukemia = system: MOLT-4 leukemia
NCI-H226 lung = system: NCI-H226 lung
NCI-H23 lung = system: NCI-H23 lung
NCI-H460 lung = system: NCI-H460 lung
NCI-H522 lung = system: NCI-H522 lung
NCI/ADR-RES ovarian = system: NCI/ADR-RES ovarian
OVCAR-3 ovarian = system: OVCAR-3 ovarian
OVCAR-4 ovarian = system: OVCAR-4 ovarian
OVCAR-5 ovarian = system: OVCAR-5 ovarian
OVCAR-8 ovarian = system: OVCAR-8 ovarian
PC-3 prostate = system: PC-3 prostate
RPMI-8226 leukemia = system: RPMI-8226 leukemia
RXF 393 renal = system: RXF 393 renal
SF-268 CNS = system: SF-268 CNS
SF-295 CNS = system: SF-295 CNS
SF-539 CNS = system: SF-539 CNS
SK-MEL-2 melanoma = system: SK-MEL-2 melanoma
SK-MEL-28 melanoma = system: SK-MEL-28 melanoma
SK-MEL-5 melanoma = system: SK-MEL-5 melanoma
SK-OV-3 ovarian = system: SK-OV-3 ovarian
SN12C renal = system: SN12C renal
SNB-19 CNS = system: SNB-19 CNS
SNB-75 CNS = system: SNB-75 CNS
SR leukemia = system: SR leukemia
SW-620 colon = system: SW-620 colon
T-47D breast = system: T-47D breast
TK-10 renal = system: TK-10 renal
U251 CNS = system: U251 CNS
UACC-257 melanoma = system: UACC-257 melanoma
UACC-62 melanoma = system: UACC-62 melanoma
UO-31 renal = system: UO-31 renal

With `CC(=O)NC1C(OCc2ccccc2)OC(CO)C(O)C1OC(C)C(=O)NC(C)C(=O)NC(CCC(=O)NCCCCNc1c2ccccc2nc2cccc([N+](=O)[O-])c12)C(N)=O` (configuration not stated) the TGI (786-0 renal) was 0.146 µM, the TGI (A498 renal) was 0.297 µM and the TGI (A549 NSCLC) was 0.838 µM. It also gave a TGI (ACHN renal) of 0.0664 µM, a TGI (BT-549 breast) of 0.531 µM and a TGI (CAKI-1 renal) of 0.307 µM. It also gave a TGI (CCRF-CEM leukemia) of 0.578 µM, a TGI (COLO 205 colon) of 50.6 nM and a TGI (DU-145 prostate) of 0.049 µM. For the same compound, the TGI (EKVX NSCLC) was 0.322 µM, the TGI (HCC-2998 colon) was 0.0588 µM and the TGI (HCT-116 colon) was 0.068 µM. It also gave a TGI (HCT-15 colon) of 0.0495 µM, a TGI (HL-60(TB) leukemia) of 0.207 µM and a TGI (HOP-62 NSCLC) of 0.683 µM. For the same compound, the TGI (HOP-92 NSCLC) was 0.101 µM, the TGI (HS 578T breast) was 0.562 µM and the TGI (HT29 colon) was 0.0362 µM. The TGI (IGROV1 ovarian) was 0.612 µM, the TGI (K-562 leukemia) was 12.5 µM and the TGI (KM12 colon) was 0.692 µM. It also gave a TGI (LOX IMVI melanoma) of 0.548 µM, a TGI (M14 melanoma) of 12.5 µM and a TGI (MALME-3M melanoma) of 0.131 µM. For the same compound, the TGI (MCF7 breast) was 0.652 µM, the TGI (MDA-MB-231 breast) was 0.118 µM and the TGI (MDA-MB-435) was 0.105 µM. It also gave a TGI (MDA-N) of 0.0532 µM, a TGI (MOLT-4 leukemia) of 3.13 µM and a TGI (NCI-H226 lung) of 0.43 µM. The TGI (NCI-H23 lung) was 0.221 µM, the TGI (NCI-H460 lung) was 0.0363 µM and the TGI (NCI-H522 lung) was 0.286 µM. The TGI (NCI/ADR-RES ovarian) was 0.524 µM, the TGI (OVCAR-3 ovarian) was 1.64 µM and the TGI (OVCAR-4 ovarian) was 0.645 µM. The TGI (OVCAR-5 ovarian) was 1.65 µM, the TGI (OVCAR-8 ovarian) was 0.166 µM and the TGI (PC-3 prostate) was 0.663 µM. It also gave a TGI (RPMI-8226 leukemia) of 0.0629 µM, a TGI (RXF 393 renal) of 0.0676 µM and a TGI (SF-268 CNS) of 0.316 µM. It also gave a TGI (SF-295 CNS) of 1.66 µM, a TGI (SF-539 CNS) of 0.264 µM and a TGI (SK-MEL-2 melanoma) of 0.393 µM. For the same compound, the TGI (SK-MEL-28 melanoma) was 0.409 µM, the TGI (SK-MEL-5 melanoma) was 0.119 µM and the TGI (SK-OV-3 ovarian) was 3.55 µM. It also gave a TGI (SN12C renal) of 0.313 µM, a TGI (SNB-19 CNS) of 0.242 µM and a TGI (SNB-75 CNS) of 0.569 µM. It also gave a TGI (SR leukemia) of 0.0539 µM, a TGI (SW-620 colon) of 0.0785 µM and a TGI (T-47D breast) of 0.961 µM. It also gave a TGI (TK-10 renal) of 0.128 µM, a TGI (U251 CNS) of 0.303 µM and a TGI (UACC-257 melanoma) of 0.509 µM. The TGI (UACC-62 melanoma) was 0.115 µM and the TGI (UO-31 renal) was 0.339 µM.

For `O=[N+]([O-])c1ccc(C(=S)Nc2ccccc2)o1`, the TGI (786-0 renal) was 6.19 µM, the TGI (A498 renal) was 32.2 µM and the TGI (A549 NSCLC) was 22.4 µM. It also gave a TGI (ACHN renal) of 6.66 µM, a TGI (BT-549 breast) of 14.1 µM and a TGI (CAKI-1 renal) of 13.9 µM. For the same compound, the TGI (CCRF-CEM leukemia) was 11.4 µM, the TGI (COLO 205 colon) was 2790 nM and the TGI (DU-145 prostate) was 19.9 µM. For the same compound, the TGI (EKVX NSCLC) was 12.5 µM, the TGI (HCC-2998 colon) was 3.17 µM and the TGI (HCT-116 colon) was 4.67 µM. For the same compound, the TGI (HCT-15 colon) was 7.07 µM, the TGI (HL-60(TB) leukemia) was 6.35 µM and the TGI (HOP-62 NSCLC) was 9.08 µM. It also gave a TGI (HOP-92 NSCLC) of 31.8 µM, a TGI (HS 578T breast) of 32.7 µM and a TGI (HT29 colon) of 5.86 µM. It also gave a TGI (IGROV1 ovarian) of 17.8 µM, a TGI (K-562 leukemia) of 6.28 µM and a TGI (KM12 colon) of 6.88 µM. For the same compound, the TGI (LOX IMVI melanoma) was 8.6 µM, the TGI (M14 melanoma) was 14 µM and the TGI (MALME-3M melanoma) was 9.3 µM. It also gave a TGI (MCF7 breast) of 5.57 µM, a TGI (MDA-MB-231 breast) of 8.06 µM and a TGI (MDA-MB-435) of 7.63 µM. For the same compound, the TGI (MDA-N) was 9.53 µM, the TGI (MOLT-4 leukemia) was 11.7 µM and the TGI (NCI-H226 lung) was 15 µM. The TGI (NCI-H23 lung) was 12.4 µM, the TGI (NCI-H460 lung) was 12.1 µM and the TGI (NCI-H522 lung) was 3.11 µM. The TGI (NCI/ADR-RES ovarian) was 9.4 µM, the TGI (OVCAR-3 ovarian) was 6.38 µM and the TGI (OVCAR-4 ovarian) was 6.47 µM. It also gave a TGI (OVCAR-5 ovarian) of 17.6 µM, a TGI (OVCAR-8 ovarian) of 10.6 µM and a TGI (PC-3 prostate) of 4.63 µM. The TGI (RPMI-8226 leukemia) was 4.9 µM, the TGI (RXF 393 renal) was 15.2 µM and the TGI (SF-268 CNS) was 13 µM. For the same compound, the TGI (SF-295 CNS) was 15.5 µM, the TGI (SF-539 CNS) was 4.58 µM and the TGI (SK-MEL-2 melanoma) was 7.95 µM. The TGI (SK-MEL-28 melanoma) was 19.3 µM, the TGI (SK-MEL-5 melanoma) was 23.2 µM and the TGI (SK-OV-3 ovarian) was 24 µM. It also gave a TGI (SN12C renal) of 6.82 µM, a TGI (SNB-19 CNS) of 17.3 µM and a TGI (SNB-75 CNS) of 30.4 µM. It also gave a TGI (SR leukemia) of 10 µM, a TGI (SW-620 colon) of 3.82 µM and a TGI (T-47D breast) of 95.1 µM. The TGI (TK-10 renal) was 14.1 µM, the TGI (U251 CNS) was 3.05 µM and the TGI (UACC-257 melanoma) was 8.82 µM. The TGI (UACC-62 melanoma) was 11.4 µM and the TGI (UO-31 renal) was 5.73 µM.

`O=C(N/N=C/c1ccc([N+](=O)[O-])cc1)Nc1ccc(C(=O)O)cc1` was tested, and the TGI (786-0 renal) was over 100 µM, the TGI (A498 renal) was 65.1 µM and the TGI (A549 NSCLC) was over 100 µM. It also gave a TGI (ACHN renal) of 99.4 µM, a TGI (BT-549 breast) of over 100 µM and a TGI (CAKI-1 renal) of over 100 µM. For the same compound, the TGI (CCRF-CEM leukemia) was over 100 µM, the TGI (COLO 205 colon) was 81000 nM and the TGI (DU-145 prostate) was over 100 µM. For the same compound, the TGI (EKVX NSCLC) was 77 µM, the TGI (HCC-2998 colon) was 52.6 µM and the TGI (HCT-116 colon) was over 100 µM. For the same compound, the TGI (HCT-15 colon) was over 100 µM, the TGI (HL-60(TB) leukemia) was over 100 µM and the TGI (HOP-62 NSCLC) was 75 µM. For the same compound, the TGI (HOP-92 NSCLC) was 92.1 µM, the TGI (HS 578T breast) was over 100 µM and the TGI (HT29 colon) was over 100 µM. The TGI (IGROV1 ovarian) was over 100 µM, the TGI (K-562 leukemia) was over 100 µM and the TGI (KM12 colon) was over 100 µM. For the same compound, the TGI (LOX IMVI melanoma) was over 100 µM, the TGI (M14 melanoma) was over 100 µM and the TGI (MALME-3M melanoma) was over 100 µM. For the same compound, the TGI (MCF7 breast) was over 100 µM, the TGI (MDA-MB-231 breast) was over 100 µM and the TGI (MDA-MB-435) was over 100 µM. It also gave a TGI (MDA-N) of over 100 µM, a TGI (MOLT-4 leukemia) of over 100 µM and a TGI (NCI-H226 lung) of 85.8 µM. For the same compound, the TGI (NCI-H23 lung) was over 100 µM, the TGI (NCI-H460 lung) was over 100 µM and the TGI (NCI-H522 lung) was 58 µM. It also gave a TGI (NCI/ADR-RES ovarian) of over 100 µM, a TGI (OVCAR-3 ovarian) of 26 µM and a TGI (OVCAR-4 ovarian) of over 100 µM. For the same compound, the TGI (OVCAR-5 ovarian) was over 100 µM, the TGI (OVCAR-8 ovarian) was over 100 µM and the TGI (PC-3 prostate) was over 100 µM. It also gave a TGI (RPMI-8226 leukemia) of over 100 µM, a TGI (RXF 393 renal) of over 100 µM and a TGI (SF-268 CNS) of over 100 µM. For the same compound, the TGI (SF-295 CNS) was 63.7 µM, the TGI (SF-539 CNS) was over 100 µM and the TGI (SK-MEL-2 melanoma) was 83.9 µM. It also gave a TGI (SK-MEL-28 melanoma) of over 100 µM, a TGI (SK-MEL-5 melanoma) of 45.9 µM and a TGI (SK-OV-3 ovarian) of 70.8 µM. It also gave a TGI (SN12C renal) of over 100 µM, a TGI (SNB-19 CNS) of over 100 µM and a TGI (SNB-75 CNS) of over 100 µM. For the same compound, the TGI (SR leukemia) was over 100 µM, the TGI (SW-620 colon) was over 100 µM and the TGI (T-47D breast) was 49.5 µM. The TGI (TK-10 renal) was over 100 µM, the TGI (U251 CNS) was over 100 µM and the TGI (UACC-257 melanoma) was over 100 µM. For the same compound, the TGI (UACC-62 melanoma) was over 100 µM and the TGI (UO-31 renal) was over 100 µM.
